Data: US20110229531A1, “ANTI-PROTOZOA COMPOUNDS” (priority 2009, published 2011)

Test system: Acanthamoeba
Assay: Acanthamoeba growth inhibition, alamarBlue reduction
Assay type: cell-based, Acanthamoeba castellanii
From the text: Furthermore, inhibition was ablated in a dose dependent manner by the addition of histidine to the medium.

SMILES | effect of 3AT on growth in the presence of histidine (10 mM histidine added, 0.98 mM 3-AT, alamarBlue reduction) | IC20 (Acanthamoeba, read-out: IC20 of 3-AT) | IC50 (Acanthamoeba, absence of histidine, percentage of alamarBlue reduction) | concentration required to significantly (p<0.05) inhibit A. castellanii growth (in the presence of 1 mM Histidine) | growth of Acanthamoeba (medium without histidine, inhibition ablated dose dependently by added histidine) | concentration that significantly (p<0.05) inhibited A. castellanii growth (no histidine, compared with untreated control cultures, dose dependent) | toxicity of histidine to Acanthamoeba (100 mM histidine)
Nc1nc[nH]n1 [3-AT, 3-amino-1,2,4-triazole] | significantly (p<0.05) ablated the effect of 3AT | 980 µM | 15 to 31 µM | ≥ 0.06 mM | inhibits growth | ≥ 0.00095 mM | 
N[C@@H](Cc1c[nH]cn1)C(=O)O [histidine] |  |  |  |  |  |  | toxic
